According to ChEMBL document CHEMBL1125036, “Antitumor properties of tetrahydrobenz[a]anthraquinone derivatives” (1990):

Assays:
[1] = system: A121; experiment: Anticancer activity against human ovarian carcinoma A121 cells; assay type: functional
[2] = system: NCI-H125; experiment: Anticancer activity against human nonsmall cell lung carcinoma (H125 cells); assay type: functional
[3] = system: L1210; experiment: Anticancer activity against murine leukemia L1210 cells; assay type: functional, Mus musculus
[4] = system: MCF7; experiment: Anticancer activity against human breast carcinoma MCF-7 cells; assay type: functional
[5] = system: WiDr; experiment: Anticancer activity against human colon carcinoma WiDr cells; assay type: functional

COc1cc2c(c3c1C(=O)c1c(NCCNCCO)ccc(NCCNCCO)c1C3=O)CCCC2
Activity [1]: 100 nM | Activity [2]: 220 nM | Activity [3]: 2 µM | Activity [4]: 1000 nM | Activity [5]: 960 nM
